One compound from US20250275995A1, “NICOTINAMIDE RIBOSIDE DOSAGE REGIMEN FOR TREATING PARKINSON'S DISEASE” (VESTLANDETS INNOVASJONSSELSKAP AS (VIS), priority 2022, published 2025) can be followed below.

One experiment concerns Parkinson's Disease (PD). In words: NADPARK: clinical severity by MDS-UPDRS. The experiment is classed as in vivo, human. As for the experimental part:
The present inventors completed a phase I randomized, double blinded trial, aiming to assess the tolerability, cerebral bioavailability and molecular effects of NR therapy in PD. A total of 30 individuals with newly diagnosed, drug-naïve PD were randomized to NR 500 mg×2/day or placebo for 30 days (Cell Metab. 2022 Mar. 1; 34(3):396-407.e6).
NR is associated with clinical improvement of PD. NR at 1000 mg daily was associated with a significant decrease in the total MDS-UPDRS (I-III) score between visits (mean decrease: 2.33±2.35; paired t-test: p=0.017).

In the next experiment the test system is blood NAD^+ levels. In words: NAD-brain pharmacokinetic study: whole blood NAD+ response. In kind it is in vivo, human. Here is the method: The NAD-brain study performs a parallel assessment of NAD replenishment therapy pharmacokinetics in the blood and brain of healthy human subjects and subjects with Parkinson's disease (PD). A total of 10 healthy individuals (5 men and 5 women) and 10 individuals with PD (5 men and 5 women) undergo repeated blood sampling and 31P-MRS brain scans during two 20-day periods, each of which starts with 8 days of daily intake of NR 600 mg×2, or NMN 600 mg×2. The two 20-day period is 14 days apart to allow for washout of the previous compound. Blood is analyzed for NR and NAD-metabolites using HPLC-MS. By this approach, we measured the simultaneous change in NAD-metabolism overtime in blood and brain and establish blood and brain pharmacokinetics for NAD replenishment therapy in humans.
NR (Niagen®, Chromadex) at a dose of 600 mg×2 daily). NMN (Restorin®, from Seragon Pharmaceutics, or MIB-626 from Metro International Biotech) at a dose of 600 mg×2 daily.
• At screening, participants are assessed for eligibility, inclusion/exclusion criteria, medical history and concomitant medication is recorded, and informed consent signed. • The NAD-brain study performs a parallel assessment of NAD replenishment therapy pharmacokinetics in the blood and brain of healthy human subjects and subjects with Parkinson's disease (PD). Healthy individuals and individuals with PD undergo repeated blood sampling and 31P-MRS brain scans during two 20-day periods, each of which starts with 8 days of daily intake of NR 600 mg×2, or NMN 600 mg×2 (Table 10). • For each 20-day period the testing (i.e., scanning and blood draw) frequency is shown in Table 10, below. The two 20-day periods are 14 days apart to allow for washout of the previous compound.
Blood is analyzed for NR and NAD-metabolites using HPLC-MS metabolomics. Snap-frozen whole blood is used for the analysis of NAD^+. Blood is drawn from the participant in EDTA tube (VACUETTE® TUBE 2 ml K2E K2EDTA). The EDTA tube is gently inverted at least 10 times without shaking; 8×200 μl of blood from the EDTA tube is aliquoted into 8×0.5 ml micro tubes; these are closed, and all the micro tubes are immerse simultaneously in liquid nitrogen within 2 min from when blood has started flowing into the EDTA tube; then transferred frozen to −80° C. freezer for storage; stored at −80C in freezer-compatible cardboard or plastic storage boxes; and shipped on dry ice.
This is a pharmacokinetic (PK) study where 6 healthy individuals (3 male and 3 female): • 1) Received NR 1200 mg daily (600 mg×2) for 8 days, followed by an additional 11 days follow up, while undergoing serial blood and brain NAD-measurement. • 2) Received NMN 1200 mg daily (600 mg×2) for 8 days, followed by an additional 11 days follow up, while undergoing serial blood and brain NAD-measurement.
The individuals were mixed, so that in stage-1 three individuals received NR and three individuals received NMN, then in stage-2 they switched (Cross-over design). There were almost three weeks (20 days) of washout between the last dose of the first compound, and before the first dose of the second compounds.

Consider `NC(=O)c1ccc[n+]([C@@H]2O[C@H](CO)[C@@H](O)[C@H]2O)c1` [NR, nicotinamide riboside], for which the “mean decrease in total MDS-UPDRS (I-III) score between visits” value with Parkinson's Disease (PD) (NR 1000 mg daily, as stated in first sentence) is listed as 2.33±2.35. Moreover, in the experiment with Parkinson's Disease (PD) (NR 1000 mg daily, whole NR group), the “change in MDS-UPDRS (total or subsections I-III)” value is “No significant change”. Further, the “mean decrease in MDS-UPDRS” value with Parkinson's Disease (PD) (nine individuals showing >10% increase in cerebral NAD levels) amounted to 2.33±2.35; in the experiment with Parkinson's Disease (PD) (subgroup of ten NR-recipients with increased cerebral NAD levels) it was 1.9±2.78. For the same compound, the “blood NAD^+ levels” value in the experiment on blood NAD^+ levels (1200 mg daily (600 mg×2) for 8 days, 6 healthy individuals) is recorded as “increased in all individuals”. Moreover, the “blood NAD^+ response, NR compared with NMN” value in the experiment on blood NAD^+ levels (1200 mg daily (600 mg×2) for 8 days, cross-over) was “stronger than the NMN response”. Moreover, the “day of maximal NAD levels in the blood” value in the experiment with blood NAD^+ levels (1200 mg daily for 8 days, last dose morning of day 8) stood at 9 days. Also, the “time to reach a steady heightened state of NAD-metabolism in blood and brain” value in the experiment with blood NAD^+ levels (NR supplementation) was “more than 8 days”. Also, the “plateau of blood NAD^+ levels” value with blood NAD^+ levels (after 8 days of precursor intake, 1200 mg daily) is on record as “did not plateau after 8 days”.
